Assay results published in patent US20020026053A1, “Novel 3-(substituted) -2- indolinones compounds and use thereof as inhibitors of protein kinase activity” (priority 1997, published 2002).

Key:
[1] = test system: FLK-1 receptor; experiment: FLK-1 Assay (cellular/catalytic ELISA, VEGF-stimulated phosphotyrosine); assay type: cell-based; design: concentration or dose not given beside the values; details: protocol P.110
Method in brief: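 NIH3T3 C7#3 cells engineered to express Flk-1 were serum-starved overnight (0.1% FBS), then exposed to compound for 2 h at 37 °C (final dilution 1:200, 0.5% DMSO) before VEGF stimulation. Lysates captured on anti-FLK-1 antiserum plates; phosphotyrosine detected by UB40 antibody/POD-ABTS ELISA versus untreated controls.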

[2] = test system: PDGF-R; experiment: PDGF-R Assay (cellular ELISA, U1242 cells); assay type: cell-based; design: concentration or dose not given beside the values; details: protocol P.119
Method in brief: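 U1242 cells seeded in 0.5% serum, serum-starved, then exposed to compound for 2 hr at 37°C before 5–10 min ligand stimulation and lysis in HNTG. Lysate captured on receptor-antibody-coated plates; phosphotyrosine detected with polyclonal anti-pTyr, goat anti-rabbit IgG and ABTS/H2O2, A410 (ref 630 nm), versus untreated cells.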

Cc1c(Br)cc(Br)c2c1C(=Cc1cccc(F)c1)C(=O)N2 [10736/H07]
Flk Kinase % Inhibition (P.110) [1]: 17.8%
PDGF Kinase % Inhibition (P.119) [2]: −21.9%

Cc1c(Br)cc(Br)c2c1C(=Cc1ccccc1F)C(=O)N2 [10736/H08]
Flk Kinase % Inhibition (P.110) [1]: 15.8%
PDGF Kinase % Inhibition (P.119) [2]: −17.9%

CCc1ccc(C=C2C(=O)Nc3c(Br)cc(Br)c(C)c32)cc1 [10736/H09]
Flk Kinase % Inhibition (P.110) [1]: 13.2%
PDGF Kinase % Inhibition (P.119) [2]: −14.8%

COc1cccc(C=C2C(=O)Nc3c(Br)cc(Br)c(C)c32)c1 [10736/H10]
Flk Kinase % Inhibition (P.110) [1]: 2.1%
PDGF Kinase % Inhibition (P.119) [2]: −21.0%

Cc1c(Br)cc(Br)c2c1C(=Cc1ccccc1Cl)C(=O)N2 [10736/H11]
Flk Kinase % Inhibition (P.110) [1]: 17.6%
PDGF Kinase % Inhibition (P.119) [2]: −12.7%

CCOc1ccc(C=C2C(=O)Nc3c(Br)cc(Br)cc32)cc1 [10737/A02]
Flk Kinase % Inhibition (P.110) [1]: −5.5%
PDGF Kinase % Inhibition (P.119) [2]: 6.6%

Cc1ccc(C=C2C(=O)Nc3c(Br)cc(Br)cc32)c(C)c1 [10737/A03]
Flk Kinase % Inhibition (P.110) [1]: −1.2%
PDGF Kinase % Inhibition (P.119) [2]: 38.8%

O=C1Nc2c(Br)cc(Br)cc2C1=Cc1cc(F)ccc1F [10737/A04]
Flk Kinase % Inhibition (P.110) [1]: −0.4%
PDGF Kinase % Inhibition (P.119) [2]: 23.7%

O=C1Nc2c(Br)cc(Br)cc2C1=Cc1cccc(F)c1F [10737/A05]
Flk Kinase % Inhibition (P.110) [1]: −2.0%
PDGF Kinase % Inhibition (P.119) [2]: 21.7%

COc1ccc(C=C2C(=O)Nc3c(Br)cc(Br)cc32)cc1F [10737/A06]
Flk Kinase % Inhibition (P.110) [1]: −20.3%
PDGF Kinase % Inhibition (P.119) [2]: 15.7%

Cc1ccc(C)c(C=C2C(=O)Nc3c(Br)cc(Br)cc32)c1 [10737/A07]
Flk Kinase % Inhibition (P.110) [1]: 3.4%
PDGF Kinase % Inhibition (P.119) [2]: 7.0%

O=C1Nc2c(Br)cc(Br)cc2C1=Cc1ccc2ccccc2c1 [10737/A08]
Flk Kinase % Inhibition (P.110) [1]: 4.9%
PDGF Kinase % Inhibition (P.119) [2]: 1.0%

O=C1Nc2c(Br)cc(Br)cc2C1=Cc1ccc(Oc2ccccc2)cc1 [10737/A09]
Flk Kinase % Inhibition (P.110) [1]: −10.1%
PDGF Kinase % Inhibition (P.119) [2]: 18.9%

CC(C)(C)c1ccc(Oc2cccc(C=C3C(=O)Nc4c(Br)cc(Br)cc43)c2)cc1 [10737/A10]
Flk Kinase % Inhibition (P.110) [1]: 6.0%
PDGF Kinase % Inhibition (P.119) [2]: −3.8%

O=C1Nc2c(Br)cc(Br)cc2C1=Cc1cccc(Oc2cccc(C(F)(F)F)c2)c1 [10737/A11]
Flk Kinase % Inhibition (P.110) [1]: 6.2%
PDGF Kinase % Inhibition (P.119) [2]: 28.1%

CCOc1ccc(C=C2C(=O)Nc3ccc(I)cc32)cc1 [10737/B02]
Flk Kinase % Inhibition (P.110) [1]: −3.0%
PDGF Kinase % Inhibition (P.119) [2]: −28.9%

Cc1ccc(C=C2C(=O)Nc3ccc(I)cc32)c(C)c1 [10737/B03]
Flk Kinase % Inhibition (P.110) [1]: 7.0%
PDGF Kinase % Inhibition (P.119) [2]: 29.7%

O=C1Nc2ccc(I)cc2C1=Cc1cc(F)ccc1F [10737/B04]
Flk Kinase % Inhibition (P.110) [1]: −8.2%
PDGF Kinase % Inhibition (P.119) [2]: 12.5%

O=C1Nc2ccc(I)cc2C1=Cc1cccc(F)c1F [10737/B05]
Flk Kinase % Inhibition (P.110) [1]: −4.6%
PDGF Kinase % Inhibition (P.119) [2]: 19.7%

COc1ccc(C=C2C(=O)Nc3ccc(I)cc32)cc1F [10737/B06]
Flk Kinase % Inhibition (P.110) [1]: 3.6%
PDGF Kinase % Inhibition (P.119) [2]: 20.1%

Cc1ccc(C)c(C=C2C(=O)Nc3ccc(I)cc32)c1 [10737/B07]
Flk Kinase % Inhibition (P.110) [1]: 10.5%
PDGF Kinase % Inhibition (P.119) [2]: 18.9%

O=C1Nc2ccc(I)cc2C1=Cc1ccc2ccccc2c1 [10737/B08]
Flk Kinase % Inhibition (P.110) [1]: 12.2%
PDGF Kinase % Inhibition (P.119) [2]: −0.6%

O=C1Nc2ccc(I)cc2C1=Cc1ccc(Oc2ccccc2)cc1 [10737/B09]
Flk Kinase % Inhibition (P.110) [1]: 17.5%
PDGF Kinase % Inhibition (P.119) [2]: −14.1%

CC(C)(C)c1ccc(Oc2cccc(C=C3C(=O)Nc4ccc(I)cc43)c2)cc1 [10737/B10]
Flk Kinase % Inhibition (P.110) [1]: 17.1%
PDGF Kinase % Inhibition (P.119) [2]: −10.2%

O=C1Nc2ccc(I)cc2C1=Cc1cccc(Oc2cccc(C(F)(F)F)c2)c1 [10737/B11]
Flk Kinase % Inhibition (P.110) [1]: 12.8%
PDGF Kinase % Inhibition (P.119) [2]: −10.2%

CCOc1ccc(C=C2C(=O)Nc3ccc(Br)c(C)c32)cc1 [10737/C02]
Flk Kinase % Inhibition (P.110) [1]: −2.9%
PDGF Kinase % Inhibition (P.119) [2]: −2.2%

Cc1ccc(C=C2C(=O)Nc3ccc(Br)c(C)c32)c(C)c1 [10737/C03]
Flk Kinase % Inhibition (P.110) [1]: 10.1%
PDGF Kinase % Inhibition (P.119) [2]: 7.0%

Cc1c(Br)ccc2c1C(=Cc1cc(F)ccc1F)C(=O)N2 [10737/C04]
Flk Kinase % Inhibition (P.110) [1]: −20.1%
PDGF Kinase % Inhibition (P.119) [2]: 25.7%

Cc1c(Br)ccc2c1C(=Cc1cccc(F)c1F)C(=O)N2 [10737/C05]
Flk Kinase % Inhibition (P.110) [1]: −3.3%
PDGF Kinase % Inhibition (P.119) [2]: 12.5%

COc1ccc(C=C2C(=O)Nc3ccc(Br)c(C)c32)cc1F [10737/C06]
Flk Kinase % Inhibition (P.110) [1]: 8.7%
PDGF Kinase % Inhibition (P.119) [2]: 7.8%

Cc1ccc(C)c(C=C2C(=O)Nc3ccc(Br)c(C)c32)c1 [10737/C07]
Flk Kinase % Inhibition (P.110) [1]: 1.6%
PDGF Kinase % Inhibition (P.119) [2]: 8.6%

Cc1c(Br)ccc2c1C(=Cc1ccc3ccccc3c1)C(=O)N2 [10737/C08]
Flk Kinase % Inhibition (P.110) [1]: 8.9%
PDGF Kinase % Inhibition (P.119) [2]: 14.5%

Cc1c(Br)ccc2c1C(=Cc1ccc(Oc3ccccc3)cc1)C(=O)N2 [10737/C09]
Flk Kinase % Inhibition (P.110) [1]: 8.4%
PDGF Kinase % Inhibition (P.119) [2]: −1.8%

Cc1c(Br)ccc2c1C(=Cc1cccc(Oc3ccc(C(C)(C)C)cc3)c1)C(=O)N2 [10737/C10]
Flk Kinase % Inhibition (P.110) [1]: 16.0%
PDGF Kinase % Inhibition (P.119) [2]: 6.6%

Cc1c(Br)ccc2c1C(=Cc1cccc(Oc3cccc(C(F)(F)F)c3)c1)C(=O)N2 [10737/C11]
Flk Kinase % Inhibition (P.110) [1]: 13.3%
PDGF Kinase % Inhibition (P.119) [2]: 32.5%

CCOc1ccc(C=C2C(=O)Nc3ccc(S(=O)(=O)NC)cc32)cc1 [10737/D02]
Flk Kinase % Inhibition (P.110) [1]: 10.6%
PDGF Kinase % Inhibition (P.119) [2]: −4.2%

CNS(=O)(=O)c1ccc2c(c1)C(=Cc1ccc(C)cc1C)C(=O)N2 [10737/D03]
Flk Kinase % Inhibition (P.110) [1]: 12.1%
PDGF Kinase % Inhibition (P.119) [2]: −5.8%

CNS(=O)(=O)c1ccc2c(c1)C(=Cc1cc(F)ccc1F)C(=O)N2 [10737/D04]
Flk Kinase % Inhibition (P.110) [1]: 12.0%
PDGF Kinase % Inhibition (P.119) [2]: 9.4%

CNS(=O)(=O)c1ccc2c(c1)C(=Cc1cccc(F)c1F)C(=O)N2 [10737/D05]
Flk Kinase % Inhibition (P.110) [1]: 8.9%
PDGF Kinase % Inhibition (P.119) [2]: 2.2%

CNS(=O)(=O)c1ccc2c(c1)C(=Cc1ccc(OC)c(F)c1)C(=O)N2 [10737/D06]
Flk Kinase % Inhibition (P.110) [1]: 13.0%
PDGF Kinase % Inhibition (P.119) [2]: −10.2%

CNS(=O)(=O)c1ccc2c(c1)C(=Cc1cc(C)ccc1C)C(=O)N2 [10737/D07]
Flk Kinase % Inhibition (P.110) [1]: 12.9%
PDGF Kinase % Inhibition (P.119) [2]: −5.0%

CNS(=O)(=O)c1ccc2c(c1)C(=Cc1ccc3ccccc3c1)C(=O)N2 [10737/D08]
Flk Kinase % Inhibition (P.110) [1]: 15.3%
PDGF Kinase % Inhibition (P.119) [2]: 3.0%

CNS(=O)(=O)c1ccc2c(c1)C(=Cc1ccc(Oc3ccccc3)cc1)C(=O)N2 [10737/D09]
Flk Kinase % Inhibition (P.110) [1]: 13.9%
PDGF Kinase % Inhibition (P.119) [2]: 1.0%

CNS(=O)(=O)c1ccc2c(c1)C(=Cc1cccc(Oc3ccc(C(C)(C)C)cc3)c1)C(=O)N2 [10737/D10]
Flk Kinase % Inhibition (P.110) [1]: 23.2%
PDGF Kinase % Inhibition (P.119) [2]: 7.0%

CNS(=O)(=O)c1ccc2c(c1)C(=Cc1cccc(Oc3cccc(C(F)(F)F)c3)c1)C(=O)N2 [10737/D11]
Flk Kinase % Inhibition (P.110) [1]: 17.2%
PDGF Kinase % Inhibition (P.119) [2]: 5.4%

CCOc1ccc(C=C2C(=O)Nc3ccc(S(=O)(=O)Nc4ccc(C(F)(F)F)cc4)cc32)cc1 [10737/E02]
Flk Kinase % Inhibition (P.110) [1]: 14.3%
PDGF Kinase % Inhibition (P.119) [2]: 12.9%

Cc1ccc(C=C2C(=O)Nc3ccc(S(=O)(=O)Nc4ccc(C(F)(F)F)cc4)cc32)c(C)c1 [10737/E03]
Flk Kinase % Inhibition (P.110) [1]: 17.9%
PDGF Kinase % Inhibition (P.119) [2]: 39.2%

O=C1Nc2ccc(S(=O)(=O)Nc3ccc(C(F)(F)F)cc3)cc2C1=Cc1cc(F)ccc1F [10737/E04]
Flk Kinase % Inhibition (P.110) [1]: 16.1%
PDGF Kinase % Inhibition (P.119) [2]: 29.7%

O=C1Nc2ccc(S(=O)(=O)Nc3ccc(C(F)(F)F)cc3)cc2C1=Cc1cccc(F)c1F [10737/E05]
Flk Kinase % Inhibition (P.110) [1]: 14.9%
PDGF Kinase % Inhibition (P.119) [2]: 33.3%

COc1ccc(C=C2C(=O)Nc3ccc(S(=O)(=O)Nc4ccc(C(F)(F)F)cc4)cc32)cc1F [10737/E06]
Flk Kinase % Inhibition (P.110) [1]: 11.1%
PDGF Kinase % Inhibition (P.119) [2]: 26.5%

Cc1ccc(C)c(C=C2C(=O)Nc3ccc(S(=O)(=O)Nc4ccc(C(F)(F)F)cc4)cc32)c1 [10737/E07]
Flk Kinase % Inhibition (P.110) [1]: 20.1%
PDGF Kinase % Inhibition (P.119) [2]: 28.1%

O=C1Nc2ccc(S(=O)(=O)Nc3ccc(C(F)(F)F)cc3)cc2C1=Cc1ccc2ccccc2c1 [10737/E08]
Flk Kinase % Inhibition (P.110) [1]: 21.3%
PDGF Kinase % Inhibition (P.119) [2]: 35.6%

O=C1Nc2ccc(S(=O)(=O)Nc3ccc(C(F)(F)F)cc3)cc2C1=Cc1ccc(Oc2ccccc2)cc1 [10737/E09]
Flk Kinase % Inhibition (P.110) [1]: 11.9%
PDGF Kinase % Inhibition (P.119) [2]: 25.7%

CC(C)(C)c1ccc(Oc2cccc(C=C3C(=O)Nc4ccc(S(=O)(=O)Nc5ccc(C(F)(F)F)cc5)cc43)c2)cc1 [10737/E10]
Flk Kinase % Inhibition (P.110) [1]: 18.9%
PDGF Kinase % Inhibition (P.119) [2]: 30.9%

O=C1Nc2ccc(S(=O)(=O)Nc3ccc(C(F)(F)F)cc3)cc2C1=Cc1cccc(Oc2cccc(C(F)(F)F)c2)c1 [10737/E11]
Flk Kinase % Inhibition (P.110) [1]: 18.3%
PDGF Kinase % Inhibition (P.119) [2]: 38.0%

CCOc1ccc(C=C2C(=O)Nc3ccc(S(=O)(=O)N4CCOCC4)cc32)cc1 [10737/F02]
Flk Kinase % Inhibition (P.110) [1]: 15.1%
PDGF Kinase % Inhibition (P.119) [2]: 9.0%

Cc1ccc(C=C2C(=O)Nc3ccc(S(=O)(=O)N4CCOCC4)cc32)c(C)c1 [10737/F03]
Flk Kinase % Inhibition (P.110) [1]: 16.3%
PDGF Kinase % Inhibition (P.119) [2]: 7.8%
